Data: US7611729B2, “Dosage forms having prolonged active ingredient release” (Lunamed AG, priority 2001, dated 2009)

System: adenocarcinoma of the prostate
Assay: Human test results: oral treatment of prostate cancer patients with slow release tablets
Type: in vivo
Settings: general statement
Procedure: Diseases that can be beneficially influenced by the present dosage form include in particular benign prostate hyperplasy, cancer, leukemias, cystic fibrosis, AIDS, kidney and liver diseases, thalassemia and urea cycle disorders. For example, the treatment of an adenocarcinoma of the prostate can be carried out by administering twice daily, e.g. in the morning and evening, a pharmaceutical tablet formulation containing 250 mg of sodium 4-phenylbutyrate. […] Treatment may be continued for several month or years until a satisfactory effect is observed or the patient is total free of the disease.
Following are descriptions of treatments and test results obtained from human patients.
This patient presented on Apr. […] Because of progressive bone pains they underwent bilateral orchiectomy in February 1996. They became free of pain until November 1998 when they again suffered bone pains mainly in their back. They were than treated orally twice daily with 250 mg of sodium phenylbutyrate retard tablets according to Example 1. Four weeks later they were free of pain.
This patient presented in March 1997 with a pathological fracture of the 8th thoracic vertebra caused by metastatic destruction. The multiple biopsies of the slightly enlarged prostate was positive for adenocarcinoma on both sides. […] On Apr. 10, 1997 they underwent bilateral orchidectomy. […]

## O=C([O-])CCCc1ccccc1.[Na+] [sodium 4-phenylbutyrate]
Adenocarcinoma of the prostate, tablet with 250 mg twice daily, after treatment of about one month
  therapeutic effect (pains): pains disappear
Long period of treatment
  side effects: no side effects
